The test system of experiment [1] is N. gonorrhea RNase P (M1 RNA and C5 protein). The experiment can be described thus: RNase P inhibition assay (fluorescence polarization, ptRNA Gln cleavage). It counts as biochemical. The following applies: tested at 0.3, 1, 3 and 10 μM, result in words, numbers only in figures. The source says:
The ability of compounds of the invention to inhibit RNase P enzymes can be assessed by standard techniques. For example, the cleavage of ptRNA^Gln by the enzyme N. Gonorrhea RNase P, can be monitored in the presence and absence of a candidate compound as described in the Example 23. The progress of the RNase P-mediated cleavage reaction can be assessed by measuring the fluorescence polarization level of the TAMRA moiety hybridized to the cleaved substrate
Compounds of the invention (see Table 1 and FIG. 3) were assayed for inhibition of RNase P activity. The assay components were the M1 RNA and C5 protein from N. gonorrhea and a model precursor tRNA substrate derived from Synechocystis ptGLN. The compounds were diluted in assay buffer (50 mM Tris-HCl, pH 7.5/100 mM […]/10 mM MgCl2/1 mM DTT/1 mg/ml BSA) from 2 μL of a 1 mM DMSO stock solutions in 384 well polypropylene plates to a concentration of 40 μM. 12.5 μL of each compound dilution was transferred to empty duplicate wells of two 384-well black polystyrene assay plates. One assay plate received 37.5 μL of assay buffer plus 12.5 μL of stop buffer (25 mM EDTA/1.25×SSC Buffer in PA buffer; SSC=150 mM NaCl, 15 mM sodium citrate and PA=50 mM TRIS hydrochloride, 100 mM ammonium chloride, 10 mM magnesium chloride) and was read immediately on a LJL Analyst fluorimeter to serve as a background fluorescence plate. The other plate sequentially received the following reagents diluted in assay buffer, 12.5 μL of 0.4 nM M1 RNA, 12.5 μL of 2 nM C5 protein, and 12.5 μL of 160 nM substrate. Wells were included that receive neither the M1 RNA nor the C5 protein to serve as no-enzyme controls. The enzymatic reaction was allowed to proceed for 30 minutes and was stopped by the addition of 12.5 μL per well of stop buffer containing 20 nM of a DNA-5′ TAMRA probe complementary to the 5′ end of the substrate. The probe was allowed to hybridize to the substrate for 2 hours, and the polarization status of the probe was measured using the LJL Analyst fluorimeter. All compounds were tested at 0.3 μM, 1 μM, 3 μM, and 10 μM concentrations. The results, which are expressed as a percentage of the control, were calculated using equation 1. In this equation, f is the fluorescence in counts per second; (f.enzyme+probe) is the fluorescence observed when enzymatic activity is uninhibited; (f.probe) is the fluorescence observed without enzymatic activity; and (f.compound+enzyme+probe) is the fluorescence observed when the enzymatic activity is modulated by a compound of the invention. Assay results for MES 35793 are shown in FIG. 7, and assay results for MES 31242, MES 82794, and MES 35793 are shown in FIG. 8. Other candidate RNase P inhibitors may be tested similarly using any RNase P holoenzyme and any appropriate RNase P substrate. [formula]
Background: In fluorescence polarisation assays a small probe gives low polarisation when free and higher when bound to something large.

In another experiment the test system is S. aureus. Kind of experiment: Bacterial inhibition assay, S. aureus growth. The following applies: tested at 1, 3 and 10 μM, result in words. The experiment is classed as cell-based. As for the experimental part: (§1) Compounds of the invention (see Table 1 and FIG. 3) were assayed for their ability to inhibit bacterial growth. Compounds were diluted from 10 mM DMSO stocks to 3 mM and 1 mM in DMSO. The compounds were further diluted from these stocks into saline for 200, […], and 20 μM stocks. Control antibiotics were diluted similarly. Overnight cultures of bacteria were made in the following manner. N. gonorrhea was streaked onto a chocolate agar plate and incubated at 35° C./5% CO2. A loopful from a stock plate of E. coli was added to 3 mL TSB medium, vortexed and incubated at 37° C. in the absence of CO2. An S. aureus culture was made as described for the E. coli culture, except that a nutrient broth was used instead of TSB medium. […]
(§2) On the following day bacteria were prepared by dilution into saline with O.D. 625 nM readings taken to determine the concentration of the bacteria. CFUs (colony forming units) were determined using the formula: CFU/mL=OD625×(1.5×10^8 CFU/mL/OD McFarland std)×dilution. […] Plates were incubated at 35° C. with O2 for 16-20 hours for S. aureus, S. pyogenes, and E. coli and read at OD665 in the Victor2 plate reader. […] The plates were read at OD490. […] The results, which are expressed as a percentage of the control, were calculated using equation 2. […]

Experiment [2] has as its system bacterial growth (N. gonorrhea, E. coli, S. aureus, S. pyogenes). Kind of experiment: Bacterial inhibition assay (species not stated). The experiment is classed as cell-based. The settings on record: tested at 1, 3 and 10 μM; species not given, refers to FIGS. 1A-2. As to the method:
The ability of compounds of the invention to inhibit bacterial growth can also be assessed by standard testing procedures, such as monitoring bacterial growth in the presence of one or more candidate compound. Any reduction in bacterial growth, in comparison to an uninhibited control, is a measure of the antibacterial activity of the compound. The antibacterial activity of some compounds of the invention were measured against N. gonorrhea, E. coli, S. aureus, and S. pyogenes (Example 23).
Compounds of the invention (see Table 1 and FIG. 3) were assayed for their ability to inhibit bacterial growth. Compounds were diluted from 10 mM DMSO stocks to 3 mM and 1 mM in DMSO. The compounds were further diluted from these stocks into saline for 200, 120, and 20 μM stocks. Control antibiotics were diluted similarly. Overnight cultures of bacteria were made in the following manner. N. gonorrhea was streaked onto a chocolate agar plate and incubated at 35° C./5% CO2. A loopful from a stock plate of E. coli was added to 3 mL TSB medium, vortexed and incubated at 37° C. in the absence of CO2. An S. aureus culture was made as described for the E. coli culture, except that a nutrient broth was used instead of TSB medium. Rather than make an overnight culture of S. pyogenes, a loopful of S. pyogenes from a blood plate or a stock plate was used the following day for direct cell suspension.
On the following day bacteria were prepared by dilution into saline with O.D. 625 nM readings taken to determine the concentration of the bacteria. CFUs (colony forming units) were determined using the formula: CFU/mL=OD625×(1.5×10^8 CFU/mL/OD McFarland std)×dilution. The four bacterial cultures were diluted initially to 5.5×10^7 CFU/mL. The bacteria were then further diluted into medium to 5.5×10^5 CFU/mL for S. aureus, S. pyogenes and E. coli and 5.5×10^6 CFU/mL for N. gonorrhea. S. aureus and E. coli are grown in CAMHB medium and S. pyogenes and N. gonorrhea in CAMHB-3% LHB medium. The bacteria were added one per plate at 200 μL per well. Compounds were added in 10 μL for final concentrations of 10, 3 and 1 μM in duplicate. Control antibiotics for S. aureus, oxacillin; for S. pyogenes, penicillin; for E. coli, ampicillin; and for N. gonorrhea, ciprofloxacin were added from 0.8 mg/ml to 0.003 mg/ml. Plates were incubated at 35° C. with O2 for 16-20 hours for S. aureus, S. pyogenes, and E. coli and read at OD665 in the Victor2 plate reader. Plates were incubated at 35° C. with 5% CO2 for 24 hours for N. gonorrhea at which time 40 μL of MTS reagent is added per well and incubated for 1 hour in same incubator. The plates were read at OD490. Compounds were tested at 1 μM, 3 μM, and 10 μM concentrations. The results, which are expressed as a percentage of the control, were calculated using equation 2. […]

The subject of a further experiment is N. gonorrhea. Kind of experiment: Bacterial inhibition assay, N. Gonorrhea growth. It counts as cell-based. The settings on record: tested at 1, 3 and 10 μM, result in words. As to the method: as §1, §2

Six compounds from US7001924B2, “Inhibitors of RNase P proteins as antibacterial compounds” (Message Pharmaceuticals, priority 2001, dated 2006) can be followed below.

“Also recorded” adds a separate entry of the source. Counter-ions that a name gives are not always drawn.

For the compound `CCN1/C(=C/c2sc3ccc(O)cc3[n+]2CC)C=Cc2ccc(C)cc21` [MES 82794], the “inhibition of RNase P activity (fluorescence data, percentage of the control)” value in experiment [1] is “can inhibit a representative RNase P”.

For `C/C(=N\NC(=N)N)c1ccc(NC(=O)CNC(=O)c2cccc(/C(C)=N/NC(=N)N)c2)cc1` [MES 10635, Bisguanylhydrazone trifluoroacetic acid salt of N′-(3-acetylbenzoyl)-N-(4-acetylphenyl)glycinamide], the “inhibition of bacterial growth, S. aureus data” value with S. aureus is reported as “can inhibit bacterial growth”. Besides, in experiment [2], the “inhibitors of bacterial growth (summary statement)” value (from here on “inhibitors”) is “inhibitors of bacterial growth”. The “inhibition of RNase P activity (fluorescence data, percentage of the control)” value in experiment [1] is listed as “inhibitors of RNase P activity; also recorded: can inhibit a representative RNase P”.

Take `C/C(=N\NC(=N)N)c1ccc(NC(=O)[C@H](Cc2ccccc2)NC(=O)c2cccc(/C(C)=N/NC(=N)N)c2)cc1` [MES 10636, Bisguanylhydrazone trifluoroacetic acid salt of N′-(3-acetylbenzoyl)-N-(4-acetylphenyl)phenylalaninamide]: the “inhibition of bacterial growth, S. aureus data” value in the experiment on S. aureus was “can inhibit bacterial growth”. The “inhibitors” value in experiment [2] was “inhibitors of bacterial growth”. Also, the entries for the “inhibition of RNase P activity (fluorescence data, percentage of the control)” value in experiment [1] and in experiment [1] (listed as MES10636) were “can inhibit a representative RNase P” and “inhibitors of RNase P activity”, respectively.

Turning to `CCN1/C(=C\C=c2/s/c(=C\c3sc4ccccc4[n+]3CC)n(CC)c2=O)Sc2ccccc21` [MES 35793], the “inhibitors” value in experiment [2] is listed as “inhibitors of bacterial growth”. The “inhibition of bacterial growth, N. Gonorrhea growth data” value in the experiment on N. gonorrhea is on record as “can inhibit bacterial growth”. Besides, in experiment [1], the “inhibition of RNase P activity (fluorescence data, percentage of the control)” value was “can inhibit RNase P activity; also recorded: can inhibit a representative RNase P”.

In the case of `CCN1/C(=C/C=C/c2sc3c4ccccc4ccc3[n+]2CC)Sc2cc(C)c(C)cc21` [MES 31242], the “inhibition of RNase P activity (fluorescence data, percentage of the control)” value in experiment [1] was “can inhibit a representative RNase P”.

Take `C/C(=N\NC(=N)N)c1cccc(C(=O)NCCNC(=O)c2cccc(/C(C)=N/NC(=N)N)c2)c1` [MES 10609, bisguanylhydrazone of N-(N′-2-(3-acetylbenzamido)-ethyl)-3-acetylbenzamide]: the “inhibitors” value in experiment [2] was “inhibitors of bacterial growth”. The “inhibition of bacterial growth, N. Gonorrhea growth data” value in the experiment on N. gonorrhea was “can inhibit bacterial growth”. In addition, the “inhibition of RNase P activity (fluorescence data, percentage of the control)” value in experiment [1] was “can inhibit RNase P activity”; in experiment [1] (listed as MES10609), “inhibitors of RNase P activity”.
